Measured values published in patent US20260015339A1, “CALIX[4]ARENES WITH HIGH ANTICANCER ACTIVITY” (UNIVERSITE GRENOBLE ALPES, priority 2023, published 2026).
In brackets after ≈: the same amount, converted by molar mass.

Legend:
Staphylococcus aureus = assay: Minimal inhibitory concentration, bacterial growth in 96 well plate; assay type: cell-based; conditions: SA, with 100 μM CuSO4
Procedure: (§1) The efficiency of a compound of interest on a bacterial strain is evaluated by measuring its minimal inhibitory concentration (hereafter abbreviated “MIC”). MICs are measured by following the bacterial growth in a 96 wells plate exposed to a range of concentrations of the compound of interest.
(§2) A small amount of the frozen bacteria (stored at −80° C. in glycerol) was mixed in 25 mL of Lysogeny broth (i.e. a nutritionally rich medium used for the growth of bacteria which comprises 10 g of tryptone, 5 g of yeast extract, 10 g of NaCl, and 1 L of distilled water; with the pH adjusted to 7.0 with 1 N NaOH; and autoclaved for 25 min at 120° C.) in a falcon tube and then placed in an incubation chamber at 180 rpm and 37° C. After 16 to 24 hours, 25 mL of Lysogeny broth was added to the growth media and placed back in the incubation chamber for two hours. The absorption of the resulting solution was measured at 600 nm (hereafter abbreviated “OD600”) using Lysogeny broth as blank and then the solution was diluted to 0.1±0.01.
(§3) 96 Well plates were filled with 20 μL of 1 mM CuSO4 solution, then 160 μL of growth media was added. Finally, 20 μL of DMSO solutions containing a range of concentrations of the tested calix[4]arene of the formula (2) was added. […] For each condition three wells were used. The top and bottom rows were used as control, the top row only contained Lysogeny broth and the bottom one contained the growth media, DMSO and CuSO4. The plates were placed in the incubator for 16 to 24 hours. The absorbance of each well was measured at 600 nm with a multiplate reader (Fluostar from Optima).
(§4) The ratio between the average absorption value of three wells (OD) with the same conditions minus the average of the 12 negative controls (OD(negative)) and the average of the 12 positive control (OD(positive)) minus the negative control yielded the growth value which was subtracted from one and multiplied by a hundred to give the inhibition percentage (Equation 1).
(§5) The MIC50 or MIC90 is defined by the lowest concentration for which the inhibition value is at/over 50 or 90%. For a given experimental conditions three rows are used in a plate. The whole process was also repeated three times to obtain triplicates. MIC values were the determined by the average values obtained.

[1] = system: methicillin resistant Staphylococcus aureus; assay: as above; assay type: cell-based; conditions: MRSA, with 100 μM CuSO4
Procedure: as §1, §2, §3, §4, §5

Escherichia coli = assay: as above; assay type: cell-based; conditions: E. coli, with 100 μM CuSO4
Procedure: as §1, §2, §3, §4, §5

[2] = system: vancomycin resistant enterococcus; assay: as above; assay type: cell-based; conditions: VRE, with 100 μM CuSO4
Procedure: as §1, §2, §3, §4, §5

[3] = system: A549 human lung cancer cells; assay: MTS cytotoxicity assay on A549; assay type: cell-based; conditions: A549, 72 hours of treatment
Procedure: A549 human lung cancer cells were seeded in 96-well plates together with the calix[4]arene of the formula (2). Cells were grown in RPMI-1640 supplemented with GlutaMAX™ (Gibco™) and fetal calf serum (FCS, 10%) and treated with a broad range of concentrations of the calix[4]arene of the formula (2). After 72 hours of treatment, the cytotoxicity was measured by means of the IC50 value, using the kit “CellTiter 96R AQuous One Solution Cell Proliferation Assay (MTS)” from Promega™. Following 30 minutes of incubation with the MTS reagent, the endpoint measurements were done in triplicate at 485 nm, using a fluorescence plate reader.
A549 human lung cancer cells were seeded in 96-well plates together with the compound of the 2nd comparative example of the formula (XI). Cells were grown in RPMI-1640 supplemented with GlutaMAX™ (Gibco™) and fetal calf serum (FCS, 10%) and treated with a broad range of concentrations of the 2nd comparative example of the formula (XI). After 72 hours of treatment, the cytotoxicity was measured by means of the IC50 value, using the kit “CellTiter 96R AQuous One Solution Cell Proliferation Assay (MTS)” from Promega™. Following 30 minutes of incubation with the MTS reagent, the endpoint measurements were done in triplicate at 485 nm, using a fluorescence plate reader. […]

[4] = system: Non-malignant MRC5-SVII cells; assay: MTS cytotoxicity assay on MRC5-SVII; assay type: cell-based; conditions: 72 hours of treatment
Procedure: Cells were grown in Minimal Essential Medium—Non Essential Amino Acids (MEM NEAA) culture medium from Gibco™, supplemented with sodium pyruvate ([…]), and fetal calf serum (FCS, 10%) and treated with a broad range of concentrations of the 2nd comparative example of the formula (XI).

[5] = Cu^+ transport into liposomes with encapsulated BCS; conditions: POPC/cholesterol 7:3 LUVs, calix[4]arene to lipid 1:1000, 50 μM copper gradient, F/F0 after 600 s
Procedure: The ability of the examples of calix[4]arenes of the invention and the comparative examples to be delivered into a lipidic bilayer membrane of a liposome from a solution and their capacity to then act as a transporter of Cu^+ was evaluated using bathocuproine disulphonate (hereafter abbreviated “BCS”) encapsulated in large unilamellar vesicles (LUVs, also referred to as liposomes) composed of 1-palmitoyl-2-oleoyl-sn-glycero-3-phosphocholine and cholesterol in a 7:3 ratio.
BCS is a fluorescent water soluble phenantroline derivative that can be used as fluorescent dye for the sensing of Cu^+ through the formation of a non-fluorescent 2:1 complex.
Stock solution of lipids were prepared using deacidified CHCl3 and stored in a freezer. CHCl3 was deacidified by passing through activated basic alumina. The lipids used to prepare the liposomes were 2-oleoyl-1-palmitoyl-sn-glycero-3-phosphocholine (POPC), (purity ≥99%) and cholesterol (purity of 95%). 50 mM sodium phosphate buffer were prepared with Millipore water at pH 7 (±0.1) by mixing the solution of the mono- and the di-protonated phosphate salts. The solution of the dye (BCS) was prepared at 0.5 mM concentration in phosphate buffer.
The lipids solutions were mixed in different ratios in a 5 mL round bottom flask. The POPC/cholesterol molar ratio was 7:3 in all experiments. The total amount of lipids per batch varied depending on the amount of liposomes solution required for the experiment. After mixing the lipid solutions in a round bottom flask, the chloroform was evaporated under a gentle air flow and the resulting lipid film was dried at high vacuum for at least an hour. 500 μL of the BCS solution in phosphate buffer and a magnetic stir bar were added to the flask. The flask was then sonicated for 30 seconds and placed under magnetic agitation for at least an hour. The solution was frozen with liquid nitrogen and heated back to room temperature with warm water ten times to form large unilamellar vesicles (LUVs). The liposome solution was extruded 29 times, using an extrusion kit equipped with a membrane with 200 nm pores. Subsequently, the solution was eluted with the buffer solution used for the experiment through a size exclusion column (Sephadex G-25) to remove the external BCS and then diluted with phosphate buffer to obtain a concentration of 0.4 mM in lipids.
Solutions of the calix[4]arenes were prepared at a concentration of 0.24 mM in DMSO and 5 μL of the solution was added 2 minutes before each transport measurement.
Alternatively, calix[4]arenes were pre-incorporated by combining the calix[4]arene (dissolved in chloroform) with the lipids prior to the evaporation of the chloroform to obtain a lipid film. The concentrations and volumes were chosen to obtain a calix[4]arene to lipid of 1:1000.
Fluorescence measurements were performed with a Horiba FluoroMax 4 spectrometer using a 4-faced quartz cuvette (10 mm×10 mm). For the Cu^+ transport assay, the excitation was set at 278 nm and emission was recorded at 393 nm. These values correspond to the excitation and emission maxima of BCS encapsulated inside LUVs.
The Cu^+ solutions added to the liposomes were obtained by dissolving Cu(MeCN)4BF4 in MeCN at 15.25 mM concentration. The copper solution was then diluted by a factor 5 in a phosphate buffer during the first 30 seconds of the experiment to reach a copper concentration of 3.05 mM. 50 μL of the diluted copper solution was added to 3 mL of liposomes, resulting in a copper gradient of 50 μM. The fluorescence level was monitored for 600 seconds after the addition of the copper solution.
For each run the initial plateau and the initial vertical drop (due to the binding of the exterior dye with Cu^+ and the dilution, 1-4 seconds after the addition) were removed. Then the signal was normalised by dividing the fluorescence values (F) by the value at t=0 second (F0). […]

SMILES: CCCOc1c2cccc1Cc1cccc(c1OCc1nccn1C)Cc1cccc(c1OCCC)Cc1cccc(c1OCc1nccn1C)C2 [(2)]
- MIC50 (Staphylococcus aureus): 0.8 µM (≈ 0.558 µg/mL)
- MIC90 (Staphylococcus aureus): 1.6 µM (≈ 1.12 µg/mL)
- MIC50 [1]: 0.8 µM (≈ 0.558 µg/mL)
- MIC90 [1]: 0.8 µM (≈ 0.558 µg/mL)
- MIC50 (Escherichia coli): 0.8 µM (≈ 0.558 µg/mL)
- MIC90 (Escherichia coli): 1.6 µM (≈ 1.12 µg/mL)
- MIC50 [2]: 0.8 µM (≈ 0.558 µg/mL)
- MIC90 [2]: 1.6 µM (≈ 1.12 µg/mL)
- IC50 [3]: 1.56 µM
- IC50 [4]: 1.03 µM
- Cu^+ transport [5]: Yes (means that a significant decrease of the fluorescence of encapsulated BCS was observed upon addition of Cu^+ to the liposomes (F/F0<0.65 after 600 s))
